From patent US20240391870A1 (Arcturus Therapeutics, Inc., priority 2023, published 2024)

Tests used:
Mouse plasma stability = type: in vitro ADME, CD-1 mouse; details: Table 2, mouse plasma 37 C, 1 uM lipid
Method: Lipid stock solution was prepared by dissolution of the lipid in isopropanol at the concentration of 5 mg/mL. A requisite volume of the lipid-isopropanol solution was then diluted to 100 μM concentration at a total volume of 1.0 mL with in 50:50 (v/v) ethanol/water. Ten microliters of this 100 μM solution was spiked into 1.0 mL of mouse plasma (BioIVT, Cat. No.: MSE00PLNHUNN, CD-1 mouse, anticoagulant: sodium heparin, not filtered) that was pre-warmed to 37° C. and was stirred at 50 rpm with a magnetic stir bar. The starting concentration of lipids in plasma was thus 1 μM. At time points 0, 15, 30, 45, 60 and 120 min, 0.1 mL of the plasma was withdrawn from the reaction mixture and the protein was precipitated by adding 0.9 mL of ice-cold 4:1 (v/v) acetonitrile/methanol with 1 μg/mL of a selected internal standard lipid added. After filtration through a 0.45 micron 96-well filtering plate, the filtrates were analyzed by LC-MS (Thermo Fisher's Vanquish UHPLC—LTQ XL linear ion trap Mass Spectrometer); Waters XBridge BEH Shield RP18 2.5 micron (2.1×100 mm) column with its matching guard column. Mobile phase A was 0.1% formic acid in water, and mobile phase B was 0.1% formic acid in 1:1 (v/v) acetonitrile/methanol. Flow rate was 0.5 ml/min. Elution gradient was: Time 0-1 min: 10% B; 1-6 min: 10%-95% B; 6-8.5 min: 95% B; 8.5-9 min: 95%-10% B; 9-10 min: 10% B. Mass spectrometry was in positive scanning mode from 600-1100 m/z. The peak of the molecular ion of the lipids was integrated in the extracted ion chromatography (XIC) using Xcalibur software (Thermo Fisher). The relative peak area compared to T=0, after normalization by the peak area of the internal standard, was used as the percentage of the lipid remaining at each time point. T1/2 values were calculated using the first-order decay model.

hEPO = hEPO mRNA expression evaluation (hEPO-LNPs); type: in vivo, Balb/c mice; details: Table 2; 0.1 mpk i.v., serum hEPO after 6 hr
Method: Protocol for hEPO mRNA Expression Evaluation
Lipid formulations comprising a hEPO mRNA below were evaluated for their ability to express hEPO in vivo according to the protocol of this example. All animal experiments were conducted using institutionally-approved protocols (IACUC). In this protocol, female Balb/c mice at least 6-8 weeks of age were purchased from Charles River Laboratory. […] After 6 hr, blood was collected with serum separation tubes, and the serum was isolated by centrifugation. Serum hEPO levels were then measured using an ELISA assay (Human Erythropoietin Quantikine IVD ELISA Kit, R&D Systems, Minneapolis, MD).

[1] = In vivo biodegradability assay (lipid in liver); details: Table 2, mouse liver, 48 h
factor VII = assay: Factor VII knock down evaluation (LNP with FVII siRNA); type: in vivo, Balb/C mice; details: Table 2, plasma FVII after 48 h vs saline control; for FVII KD % 0.01 mpk: 0.01 mpk i.v.; for FVII KD % 0.03 mpk: 0.03 mpk i.v.
Method: Lipid formulations comprising a FVII siRNA further described below were evaluated for their knockdown activity using the protocol of this example. In the FVII evaluation, seven to eight week-old, female Balb/C mice were purchased from Charles River Laboratories (Hollister, CA). The mice were held in a pathogen-free environment and all procedures involving the mice were performed in accordance with guidelines established by the Institutional Animal Care and Use Committee (IACUC). Lipid nanoparticles containing factor VII siRNA were administered intravenously at a dosing volume of 10 mL/kg and two dose levels (0.03 and 0.01 mg/kg). After 48 h, the mice were anesthetized with isoflurane and blood was collected retro-orbitally into Microtainer® tubes coated with 0.109 M sodium citrate buffer (BD Biosciences, San Diego, CA) and processed to plasma. Plasma specimens were tested for factor VII levels immediately or stored at −80° C. for later analysis. Measurement of FVII protein in plasma was determined using the colorimetric Biophen VII assay kit (Aniara Diagnostica, USA). Absorbance was measured at 405 nm and a calibration curve was generated using the serially diluted control plasma to determine levels of factor VII in plasma from treated animals, relative to the saline-treated control animals.

SMILES	Percent remaining in mouse plasma after 2 h (Mouse plasma stability) [%]	EPO exprssn (ng/mL) 0.1 mpk (hEPO) [ng/mL]	In vivo degradability (ng/tissue) at 48h 0.03 mpk [1]	In vivo degradability (ng/tissue) at 48h 0.1 mpk [1]	FVII KD % 0.01 mpk (factor VII) [%]	FVII KD % 0.03 mpk (factor VII) [%]
CCCCC(C)(C)CC(=O)OCC(C)(COC(=O)CCN(CCC(=O)OCC(C)(COC(=O)CC(C)(C)CCCC)COC(=O)CC(C)(C)CCCC)C(=O)SCCCN(C)C)COC(=O)CC(C)(C)CCCC [LIPID 23]	100	730	<340 ng/tissue	<340 ng/tissue	17	61.7
CCCCCCCC(=O)OCC(C)(COC(=O)CCCCCCC)COC(=O)CCN(CCC(=O)OCC(C)(COC(=O)CCCCCCC)COC(=O)CCCCCCC)C(=O)SCCCN(C)C [LIPID 24]	100	1420	BLOQ	BLOQ	60.5	87.4
CC1CCC(CCC(=O)OCC(C)(COC(=O)CCC2CCC(C)CC2)COC(=O)CCN(CCC(=O)OCC(C)(COC(=O)CCC2CCC(C)CC2)COC(=O)CCC2CCC(C)CC2)C(=O)SCCCN(C)C)CC1 (stereo not drawn) [LIPID 20]	100	1148	<340 ng/tissue	<340 ng/tissue	36	74
Cc1ccc(CCC(C)C(=O)OCC(COC(=O)C(C)CCc2ccc(C)cc2)OC(=O)CCCN(CCCC(=O)OC(COC(=O)C(C)CCc2ccc(C)cc2)COC(=O)C(C)CCc2ccc(C)cc2)C(=O)SCCCN(C)C)cc1 (stereo not drawn) [LIPID 41, ((4,4′-((((3-(dimethylamino)propyl)thio)carbonyl)azanediyl)bis (butanoyl))bis(oxy))bis(propane-2,1,3-triyl)tetrakis(2-methyl-4-(p-tolyl)butanoate)]	–	1209	–	–	56	76
CCCCCCC(C)C(=O)OCC(COC(=O)C(C)CCCCCC)OC(=O)CCCN(CCCC(=O)OC(COC(=O)C(C)CCCCCC)COC(=O)C(C)CCCCCC)C(=O)NCCCN(C)C (stereo not drawn) [LIPID 36, [2-[4-[3-(dimethylamino)propylcarbamoyl-[4-[2-(2-methyloctanoyloxy)-1-(2-methyloctanoyloxymethyl)ethoxy]-4-oxo-butyl]amino]butanoyloxy]-3-(2-methyloctanoyloxy)propyl]2-methyloctanoate]	–	0	–	–	0	0
CCCCCCCCC(=O)OCC(COC(=O)CCCCCCCC)COC(=O)CCN(CCC(=O)OCC(COC(=O)CCCCCCCC)COC(=O)CCCCCCCC)C(=O)SCCN(C)C [LIPID 26]	100	70	BLOQ	BLOQ	8	50
CN(C)CCCSC(=O)N(CCCC(=O)OC(COC(=O)C1CCC2CCCC2C1)COC(=O)C1CCC2CCCC2C1)CCCC(=O)OC(COC(=O)C1CCC2CCCC2C1)COC(=O)C1CCC2CCCC2C1 (stereo not drawn) [LIPID 30, ((4,4′-((((3-(dimethylamino)propyl)thio)carbonyl)azanediyl)bis (butanoyl))bis(oxy))bis(propane-2,1,3-triyl)tetrakis(octahydro-1H-indene-5-carboxylate)]	100	95	BLOQ	BLOQ	3.2	62.1
CCCCCCCCC(=O)OCC(COC(=O)CCCCCCCC)COC(=O)CCCN(CCCC(=O)OCC(COC(=O)CCCCCCCC)COC(=O)CCCCCCCC)C(=O)SCCCN(C)C [LIPID 25]	100	2945	BLOQ	BLOQ	63	95
CCCCCCC(C)C(=O)OCC(COC(=O)C(C)CCCCCC)OC(=O)CCCN(CCCC(=O)OC(COC(=O)C(C)CCCCCC)COC(=O)C(C)CCCCCC)C(=O)OCCCN(C)C (stereo not drawn) [LIPID 35, [2-[4-[3-(dimethylamino)propoxycarbonyl-[4-[2-(2-methyloctanoyloxy)-1-(2-methyloctanoyloxymethyl)ethoxy]-4-oxo-butyl]amino]butanoyloxy]-3-(2-methyloctanoyloxy)propyl]2-methyloctanoate]	–	678	–	–	68.5	84
CC1CCC(CCC(=O)OCC(COC(=O)CCC2CCC(C)CC2)COC(=O)CCN(CCC(=O)OCC(COC(=O)CCC2CCC(C)CC2)COC(=O)CCC2CCC(C)CC2)C(=O)SCCCN(C)C)CC1 (stereo not drawn) [LIPID 27]	100	69	BLOQ	BLOQ	48.1	84.9
CCC1CCC(C(=O)OCC(C)(COC(=O)CCN(CCC(=O)OCC(C)(COC(=O)C2CCC(CC)CC2)COC(=O)C2CCC(CC)CC2)C(=O)SCCCN(C)C)COC(=O)C2CCC(CC)CC2)CC1 (stereo not drawn) [LIPID 22]	100	1104	<340 ng/tissue	<340 ng/tissue	56	87
CN(C)CCCSC(=O)N(CCCC(=O)OC(COC(=O)C1CC2CCCCC2C1)COC(=O)C1CC2CCCCC2C1)CCCC(=O)OC(COC(=O)C1CC2CCCCC2C1)COC(=O)C1CC2CCCCC2C1 (stereo not drawn) [LIPID 28]	100	216	BLOQ	BLOQ	26	75.3
CC1CCC(CC(=O)OCC(C)(COC(=O)CCN(CCC(=O)OCC(C)(COC(=O)CC2CCC(C)CC2)COC(=O)CC2CCC(C)CC2)C(=O)SCCCN(C)C)COC(=O)CC2CCC(C)CC2)CC1 (stereo not drawn) [LIPID 21]	100	1028	<340 ng/tissue	<340 ng/tissue	57	90
